Reference: patent publication US7067500B2, “Betaines as adjuvants to susceptibility testing and antimicrobial therapy” (priority 1997, dated 2006)
Entries after “also recorded” stand apart in the source; their conditions may differ. Structures can show the parent of a compound that is named as a salt.

Test system: M. tuberculosis isolates (Table 8)
Experiment: MTB isolates vs. antibiotic screen in the presence and absence of CB-18
Settings: CB-18 17 μg/ml

CCCCCCCCCCCCCCCCCC[N+](C)(C)CCCC(=O)[O-] [CB-18, N-(3-carboxypropyl)-N,N-dimethyl-1-octadecanaminium, inner salt]
CB-18 induced sensitivity to antibiotics tested (061-TBR (INH resistant)): exacerbated in the presence of CB-18; also recorded: Minor, if any, CB-18 induced sensitivity to | CB-18 induced sensitivity to antibiotics tested (896-BAL (multi drug resistant: INH, RIF & PZA)): Minimal, if any, CB-18 induced sensitivity to
